Laboratory results as given in paper PMC8241002, “A tumor-targeting cRGD-EGFR siRNA conjugate and its anti-tumor effect on glioblastoma in vitro and in vivo” (Drug Delivery, 2017).
Oligonucleotides are written 5' to 3', each unit as a sugar letter and its base; * is a phosphorothioate linkage, no mark a phosphodiester; rarer units and linkages stand in square brackets, end groups in braces. Plain capitals give the bases only. d = 2'-deoxy (DNA); m = 2'-O-methyl; r = 2'-OH (RNA)

Key:
[1] = Serum stability in mouse serum (agarose gel electrophoresis); type: in vitro ADME; conditions: 37 °C
Description: Five microliters of 20 μM cRGD-siEGFR or EGFR siRNA was mixed with 5 μL of mouse serum and incubated at 37 °C for 0, 12, 24, 36 and 48 h. Aliquots were taken at each of the time points and subjected to electrophoresis in 1.2% non-denaturing agarose gels.
(§1) Figure S1. The characterization of cRGD-siEGFR conjugates and silencing efficiency of EGFR siRNA sequences. (A) The identification of cRGD-siEGFR by HPLC-MS. The measured mass of the sense strand conjugated with cRGD is 7923.4 Da (predicted mass is 7921.4 Da). (B) The analysis of purified cRGD-siEGFR with RP-HPLC. The purity of cRGD-siEGFR, calculated by the peak area normalization method, was 88.0%. (C) The serum stability of cRGD-siEGFR and EGFR siRNA sequences. Molecules were incubated in mouse serum at 37°C for the indicated time periods and then analyzed using agarose (1.2%) gel electrophoresis. (D) Gene silencing efficiency. U87MG cells were treated for 48 h with EGFR-targeting siRNAs, complexed with Lipofectamine 2000. The expression level of EGFR mRNA was analyzed by qRT-PCR. * P<0.05 vs. control group, # P<0.05 vs. siNC group, n=3

EGFR mRNA = assay: Gene silencing efficiency of EGFR siRNA sequences complexed with Lipofectamine 2000 (qRT-PCR); type: cell-based, human; conditions: U87MG cells, 48 h, complexed with Lipofectamine 2000, EGFR mRNA by qRT-PCR, n=3
Description: The relative expression level of EGFR mRNA was tested by qRT-PCR.
The qRT-PCR and western blot analysis were conducted as previously described (Liu et al., [2014]).
as §1

Substance | stability (three 2′-O-Me modifications on both ends of both strands) ([1]; mouse serum, agarose gel electrophoresis) | silencing efficiency (EGFR mRNA) | degradation in mouse serum after 24 h ([1]; 5 μL of 20 μM mixed with 5 μL mouse serum, 24 h, 1.2% non-denaturing agarose gel electrophoresis)
EGFR siRNA-C: Sense 5’mCmAmAAGUGUGUAACGGAmAmUmAdTdT-3’; antisense 5’mUmAmUUCCGUUACACACUmUmUmGdTdT-3’ (sense CAAAGUGUGUAACGGAAUATT; antisense UAUUCCGUUACACACUUUGTT; sugars from the 5' end m3 r13 m3 d2, backbone not given here; further chemistry not fully specified) | obviously improved | over 80% | –
unmodified RNA oligonucleotides: Sense 5’CAAAGUGUGUAACGGAAUAdTdT-3’; antisense 5’UAUUCCGUUACACACUUUGdTdT-3’ (sense rCrArArArGrUrGrUrGrUrArArCrGrGrArArUrAdTdT; antisense rUrArUrUrCrCrGrUrUrArCrArCrArCrUrUrUrGdTdT) | – | – | mostly degraded
